Here are results for six molecules from patent US12491180B2, “Application of compound in treating pneumonia” (SHENZHEN OPTIMUM BIOLOGICAL TECHNOLOGY CO., LTD., priority 2019, dated 2025).

≈ marks a conversion by molar mass, not a printed value.

Assay [1] relates to Citrobacter freundii 9484. In words: MIC, solid dilution method. The conditions noted are these: C.f 9484, CRE clinical isolate, MHA agar, 37° C., 16-20 hours, read-out: MIC. Format: cell-based. The method, then:
(§1) CRE Citrobacter freundii 9434, 9484 and CSE Citrobacter freundii 7646, a total of 3 strains;
(§2) The above-mentioned glycerol-preserved strains were taken out from the −80° C. refrigerator, streaked and inoculated on MHA plates, labeled, and cultured overnight in a 37° C. incubator.
(§3) The inoculum was prepared directly from bacterial suspension, and several recovered colonies were picked and directly prepared into a bacterial suspension with a turbidity of No. 0.5 McFarland units in normal saline, and a 10-fold dilution was made during inoculation.
(§4) 6 bottles of MHA culture medium 500 mL/bottle were prepared, and the pH was adjusted to 7.2-7.4, sterilized at 121° C. for 15 min, and the medium was placed in a 55° C. water bath to keep warm.
(§5) Sterile blank petri dishes were taken, and marked with each FL drug/concentration according to 2-fold dilution, and 10 concentrations of each drug starting from 8 μg/mL were tested.
(§6) […]; 20 mL was aspirated and added to a petri dish consistent with the mark, and then 20 mL of MHA culture medium was added to the rest of the drug-containing culture medium, mixed evenly, that is, the 2-fold diluted drug-containing culture medium; 20 mL was aspirated and added to the petri dish consistent with the mark, and then diluted to the 10th concentration and the […] respectively by repeating the above-mentioned steps, and then poured into the petri dish.
(§7) 4 bacterial control petri dishes without drug were prepared at the same time as a control.
(§8) The positioning needle and the inoculation needle were installed according to the order of placement of the colony on the inoculation plate. After inoculation, a bacterial solution circle was formed on the petri dish. After the bacterial solution was absorbed by the agar, the petri dish was placed in an incubator at 37° C. for overnight incubation (16-20 hours), and then taken out.
(§9) The minimum inhibitory concentrations of the compounds against the CRE and CSE strains were determined by the solid dilution method, and the results are shown in Tables 3 and 4.

For assay [2], the system named is Citrobacter freundii 9434. Nature of the assay: MIC, solid dilution method. The format is cell-based. Particulars: C.f 9434, CRE clinical isolate, MHA agar, 37° C., 16-20 hours, read-out: MIC. As to the method:
as §1, §2, §3, §4, §5, §6, §7, §8, §9

In assay [3] the test system is Citrobacter freundii 7646. Nature of the assay: MIC, solid dilution method. The format is cell-based. The conditions noted are these: C.f 7646, CSE clinical isolate, MHA agar, 37° C., 16-20 hours, read-out: MIC. The method, then:
as §1, §2, §3, §4, §5, §6, §7, §8, §9

In assay [4] the test system is Enterobacter aerogenes 8193. Nature of the assay: MIC, solid dilution method. The format is cell-based. Particulars: Klebsiella aerogenes; E. ae 8193, CRE clinical isolate; MHA agar, 37° C., 16-20 hours; read-out: MIC. As to the method: CRE Enterobacter aerogenes 8193, a total of 1 strain;
as §2, §3, §4, §5, §6, §7, §8, §9

The test system of the next assay is 16 clinical CRE strains. In words: MIC50, MIC90 and MIC range against 16 clinical CRE strains. The format is cell-based. Particulars: 16 clinical CRE strains; for MIC50: read-out: MIC50; for MIC90: read-out: MIC90. As to the method: as §2, §3, §4, §5, §6, §7, §8, §9
Assay [5] deals with Klebsiella pneumoniae 8733. Nature of the assay: MIC, solid dilution method. The format is cell-based. Particulars: K.p 8733, CSE clinical isolate, MHA agar, 37° C., 16-20 hours, read-out: MIC. The method, then:
(§10) (2) Clinical isolated strains: CRE Klebsiella pneumoniae 5846, 11544, 12559, 13249 and CSE Klebsiella pneumoniae 8733, a total of 5 strains;
as §2, §3, §4, §5, §6, §7, §8, §9

In assay [6] the test system is Klebsiella pneumoniae 13249. Nature of the assay: MIC, solid dilution method. The format is cell-based. The conditions noted are these: K.p 13249, CRE clinical isolate, MHA agar, 37° C., 16-20 hours, read-out: MIC. The method, then:
as §10, §2, §3, §4, §5, §6, §7, §8, §9

The test system of the next assay is E. ae 14186. In words: MIC, solid dilution method. Particulars: Klebsiella aerogenes; E. ae 14186; MHA agar, 37° C., 16-20 hours; read-out: MIC. Format: cell-based, Enterobacter aerogenes. The method, then:
as §2, §3, §4, §5, §6, §7, §8, §9

For the molecule `CC1(C)[C@H](NC(=O)/C(=N\O[C@@H](COc2ccc3c(c2)CN(C(=N)N[C@@H]2CCCNC2)C3)C(=O)O)c2csc(N)n2)C(=O)N1OS(=O)(=O)O` [Compound 41], the MIC in assay [1] was 0.06 µg/mL (≈ 0.0845 µM); in assay [2] it was 0.125 µg/mL (≈ 0.176 µM); in assay [3] it was 0.125 µg/mL (≈ 0.176 µM); in assay [4], 0.5 µg/mL (≈ 0.704 µM); in assay [5], 0.125 µg/mL (≈ 0.176 µM); in assay [6] it was greater than 8 µg/mL. Besides, the MIC with E. ae 14186 was 0.25 µg/mL (≈ 0.352 µM). In the assay with 16 clinical CRE strains, the MIC50 is 1 µg/mL (≈ 1.41 µM). The MIC90 in the assay with 16 clinical CRE strains was greater than 8 µg/mL.
Turning to `CC1(C)[C@H](NC(=O)/C(=N\O[C@@H](COc2ccc3c(c2)CN(C(=N)N(CCCN)CCCN)C3)C(=O)O)c2csc(N)n2)C(=O)N1OS(=O)(=O)O` [Compound 32], the minimum inhibitory concentration (MIC) in assay [1] was determined as 0.03 µg/mL (≈ 0.0405 µM); in assay [2], 0.06 µg/mL (≈ 0.081 µM); in assay [3], 0.06 µg/mL (≈ 0.081 µM); in assay [4], 0.5 µg/mL (≈ 0.675 µM); in assay [5], 0.06 µg/mL (≈ 0.081 µM); in assay [6], 4 µg/mL (≈ 5.4 µM). In the assay with E. ae 14186, the minimal inhibitory concentration (MIC) turned out to be 0.125 µg/mL (≈ 0.169 µM). In the assay on 16 clinical CRE strains, this molecule came in with an MIC range of 0.06 to 4 µg/mL. For the same molecule, in the assay with 16 clinical CRE strains, the MIC50 is 0.125 µg/mL (≈ 0.169 µM). In addition, the MIC90 in the assay on 16 clinical CRE strains came out at 4 µg/mL (≈ 5.4 µM).
`CC1(C)[C@H](NC(=O)/C(=N\O[C@@H](COc2ccc3c(c2)CN(C(=N)NCCN)C3)C(=O)O)c2csc(N)n2)C(=O)N1OS(=O)(=O)O` [Compound 44]: the MIC was 0.03 µg/mL (≈ 0.0448 µM) in assay [1]; 0.125 µg/mL (≈ 0.187 µM) in assay [2]; 0.125 µg/mL (≈ 0.187 µM) in assay [3]; 0.5 µg/mL (≈ 0.747 µM) in assay [4]; 0.06 µg/mL (≈ 0.0896 µM) in assay [5]; 8 µg/mL (≈ 11.9 µM) in assay [6]. In addition, the minimal inhibitory concentration (MIC) in the assay with E. ae 14186 stood at 0.25 µg/mL (≈ 0.373 µM). Moreover, in the assay on 16 clinical CRE strains, the MIC50 came out at 0.5 µg/mL (≈ 0.747 µM). Further, the MIC90 in the assay with 16 clinical CRE strains is 8 µg/mL (≈ 11.9 µM).
`CC1(C)[C@H](NC(=O)/C(=N\O[C@@H](COc2ccc3c(c2)CN(/C(=N\[C@@H]2CCCNC2)N[C@@H]2CCCNC2)C3)C(=O)O)c2csc(N)n2)C(=O)N1OS(=O)(=O)O` [Compound 46]: the minimal inhibitory concentration (MIC) in assay [1] is 0.06 µg/mL (≈ 0.0757 µM); in assay [2] it was 0.125 µg/mL (≈ 0.158 µM); in assay [3], 0.125 µg/mL (≈ 0.158 µM); in assay [4], 1 µg/mL (≈ 1.26 µM); in assay [5], 0.125 µg/mL (≈ 0.158 µM); in assay [6] it was 8 µg/mL (≈ 10.1 µM). Moreover, the MIC with E. ae 14186 stood at 0.25 µg/mL (≈ 0.315 µM). In addition, the MIC50 in the assay on 16 clinical CRE strains was 1 µg/mL (≈ 1.26 µM). The MIC90 in the assay on 16 clinical CRE strains is 8 µg/mL (≈ 10.1 µM).
In the case of `CC1(C)[C@H](NC(=O)/C(=N\O[C@@H](COc2ccc(C(=N)N[C@@H]3CCCNC3)cc2)C(=O)O)c2csc(N)n2)C(=O)N1OS(=O)(=O)O` [AIC499, reference compound], the minimum inhibitory concentration (MIC) is 0.25 µg/mL (≈ 0.374 µM) in assay [1]; 0.5 µg/mL (≈ 0.748 µM) in assay [2]; 0.5 µg/mL (≈ 0.748 µM) in assay [3]; 1 µg/mL (≈ 1.5 µM) in assay [4]; 0.25 µg/mL (≈ 0.374 µM) in assay [5]; greater than 8 µg/mL in assay [6]. Further, the MIC in the assay with E. ae 14186 worked out at 1 µg/mL (≈ 1.5 µM). In addition, the MIC50 in the assay on 16 clinical CRE strains was 2 µg/mL (≈ 2.99 µM). Also, the MIC90 in the assay on 16 clinical CRE strains is greater than 8 µg/mL.
With `CC1(C)[C@H](NC(=O)/C(=N\O[C@@H](COc2ccc3c(c2)CN(C(=N)NOCCN)C3)C(=O)O)c2csc(N)n2)C(=O)N1OS(=O)(=O)O` [Compound 43], the MIC in assay [1] was 0.125 µg/mL (≈ 0.182 µM); in assay [2], 0.5 µg/mL (≈ 0.729 µM); in assay [3] it was 0.5 µg/mL (≈ 0.729 µM); in assay [4], 2 µg/mL (≈ 2.92 µM); in assay [5], 0.25 µg/mL (≈ 0.365 µM); in assay [6], greater than 8 µg/mL. In addition, in the assay with E. ae 14186, the MIC was found to be 1 µg/mL (≈ 1.46 µM). Besides, the MIC50 in the assay on 16 clinical CRE strains turned out to be 2 µg/mL (≈ 2.92 µM). Also, the MIC90 in the assay with 16 clinical CRE strains is greater than 8 µg/mL.

As usually defined, the MIC is the smallest concentration in the dilution series that meets the test's criterion for growth inhibition. Usually MIC50 stands for an inhibitory concentration at the 50% level, which refers to growth in some studies and to a panel of isolates in others. As a reminder, the MIC90 is the lowest concentration that inhibits either 90% of growth or 90% of the strains tested, depending on the study.
